We go through 29 molecules from US20230091047A1 (priority 2019, published 2023).

In data set [1] the test system is HBV (HepG2.117 cell line, inducibly HBV producing). As to the kind of experiment: Anti-HBV activity: intracellular HBV DNA by real-time PCR in HepG2.117 cells after 3 days of treatment. Format: cell-based, hepatitis B virus. The method in brief: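 HepG2.117 cells (Tet-off, inducible HBV production) were induced to replicate HBV by doxycycline absence, then treated with serially diluted compound for 3 days. Activity was quantified as intracellular HBV DNA by real-time PCR using an HBV-specific primer set and probe.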

Another data set is described as follows: in vitro. Format: cell-based. The settings on record: human, HepG2 or HepG2.117 cells, ATPlite, mean value. The gist of the method:
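Luminescent ATP quantitation served as the viability endpoint following a 3- or 4-day incubation with test compounds.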

The mark [2] stands for this setting: Hepatitis B virus, HepG2.117, 72 h, HepG2.117 cells, 3 days of treatment, intracellular HBV DNA by real-time PCR; mean value; read-out: EC50 (μM, mean value).
Where [3] appears, read: 3-days incubation (unmarked values).
[4] abbreviates: Hepatitis B virus, HepG2.117, 72 h, HepG2.117 cells, intracellular HBV DNA by real-time PCR, 3 days of treatment, mean value; read-out: EC50 (μM, mean value).
[5] abbreviates: 3-days incubation (not marked with *).

Molecules are shown by their SMILES. Like-named read-outs stand apart in the source and are kept apart here.

In the case of `CNC(=O)c1ccc(-n2c(N[C@@H](C)C3CC3)nc3c(c2=O)C[C@@H](C)N(C(=O)c2ccc(Cl)c(Cl)c2)C3)cc1` [Compound C294, 4-[(6R)-2-{[(1S)-1-cyclopropylethyl]amino}-7-(3,4-dichlorobenzoyl)-6-methyl-4-oxo-5,6,7,8-tetrahydropyrido[3,4-d]pyrimidin-3(4H)-yl]-N-methylbenzamide], in data set [1] (setting [2]), the EC50 stood at 0.05 µM. Moreover, in the data set “in vitro” (setting [3]), the half-maximal cytotoxic concentration (CC50) at 3 days turned out to be 26.5 µM.
Consider `CNC(=O)c1ccc(-n2c(N[C@@H](C)c3ccc4[nH]cnc4c3)nc3c(c2=O)C[C@@H](C)N(C(=O)c2ccc(Cl)c(Cl)c2)C3)cc1` (single isomer, unassigned) [Compound C647b], for which the concentration giving a half-maximal response (EC50) in data set [1] (setting [4]) was more than 2.5 µM. The CC50 at 3 days in the data set “in vitro” (setting [5]) was more than 50 µM.
The matching figures for `CNC(=O)c1ccc(-n2c(NC(C)C)nc3c(c2=O)C[C@@H](C)N(C(=O)c2ccc(Cl)c(C(F)(F)F)c2)C3)cc1` [Compound C428]: 0.03 µM and more than 50 µM.
Consider `CNC(=O)c1ccc(-n2c(N[C@@H](C)c3ccc(C(F)(F)F)cc3)nc3c(c2=O)C[C@@H](C)N(C(=O)c2ccc(Cl)c(Cl)c2)C3)nc1` [Compound C655], for which the EC50 in data set [1] (setting [4]) came out at 0.08 µM. Also, in “in vitro” (setting [5]), the CC50 at 3 days came out at 9.1 µM.
For the molecule `Cc1coc2ccc(C(=O)N3CCc4c(nc(NC(C)C)n(-c5ccc(S(C)(=O)=O)cc5)c4=O)C3)cc12` [Compound C224, 3-[4-(methanesulfonyl)phenyl]-7-(3-methyl-1-benzofuran-5-carbonyl)-2-[(propan-2-yl)amino]-5,6,7,8-tetrahydropyrido[3,4-d]pyrimidin-4(3H)-one], the EC50 in data set [1] (setting [2]) amounted to 6.71 µM. In the data set “in vitro” (setting [3]), this molecule returned a CC50 at 3 days of more than 50 µM.
The like results for `CC(C)Nc1nc2c(c(=O)n1-c1ccc(C(=O)NCCO)cc1)C[C@@H](C)N(C(=O)c1ccc(Cl)c(Cl)c1)C2` [Compound C204, 4-[(6R)-7-(3,4-dichlorobenzoyl)-6-methyl-4-oxo-2-[(propan-2-yl)amino]-5,6,7,8-tetrahydropyrido[3,4-d]pyrimidin-3(4H)-yl]-N-(2-hydroxyethyl)benzamide] were, in that order, 0.54 µM and more than 50 µM.
As for `CNC(=O)c1ccc(-n2c(N(C)Cc3ccc4cnccc4c3)nc3c(c2=O)C[C@@H](C)N(C(=O)c2ccc(Cl)c(Cl)c2)C3)cc1` [Compound C544], the EC50 in data set [1] (setting [4]) is 0.6 µM. Also, the CC50 at 3 days in the data set “in vitro” (setting [5]) was 26.7 µM.
On to `CNC(=O)c1ccc(-n2c(N[C@@H](C)C(C)C)nc3c(c2=O)C[C@@H](C)N(C(=O)c2ccc(Cl)c(Cl)c2)C3)cc1` [Compound C390], for which the concentration for a half-maximal effect (EC50) in data set [1] (setting [4]) came to 0.08 µM. Further, in “in vitro” (setting [5]), half-maximal cytotoxicity (CC50 at 3 days) was put at 26.5 µM.
On to `CNC(=O)c1ccc(-n2c(NCc3cn(C)nn3)nc3c(c2=O)C[C@@H](C)N(C(=O)c2ccc(Cl)c(Cl)c2)C3)cc1` [Compound C469], for which the concentration giving a half-maximal response (EC50) in data set [1] (setting [4]) was more than 25 µM. This molecule also had a half-maximal cytotoxic concentration (CC50) at 3 days in the data set “in vitro” (setting [5]) of more than 50 µM.
The matching figures for `CNC(=O)c1ccc(-n2c(NC(C)C)nc3c(c2=O)C[C@@H](C)N(C(=O)c2cc(F)c(Cl)cc2F)C3)cc1` [Compound C498]: 2.92 µM and more than 50 µM.
`CNC(=O)c1ccc(-n2c(NC(C)C)nc3c(c2=O)C[C@@H](C)N(C(=O)c2ccc(Cl)c(Cl)c2)C3)c(C(C)C)c1` [Compound C420]: the EC50 in data set [1] (HepG2.117 cells, intracellular HBV DNA by real-time PCR, 3 days of treatment, mean value; read-out: EC50 (μM, mean value)) was 0.61 µM. This molecule also returned a CC50 at 3 days in the data set “in vitro” (setting [5]) of 25 µM.
Consider `CNC(=O)c1ccc(-n2c(NC(C)C)nc3c(c2=O)C[C@@H](C)N(C(=O)c2cc(F)c(Br)c(F)c2)C3)cc1` [Compound C519], for which, in data set [1] (setting [4]), the EC50 stood at 0.02 µM. Besides, the 50% cytotoxic concentration (CC50) at 3 days in the data set “in vitro” (setting [5]) was more than 50 µM.
Turning to `Cc1nc(-c2ccc(-n3c(NC(C)C)nc4c(c3=O)C[C@@H](C)N(C(=O)c3ccc(Cl)c(Cl)c3)C4)cc2)c[nH]1` [Compound C244, (6R)-7-(3,4-dichlorobenzoyl)-6-methyl-3-[4-(2-methyl-1H-imidazol-4-yl)phenyl]-2-[(propan-2-yl)amino]-5,6,7,8-tetrahydropyrido[3,4-d]pyrimidin-4(3H)-one], the EC50 in data set [1] (setting [2]) stood at 0.12 µM. The cytotoxic concentration (CC50) at 3 days in “in vitro” (setting [3]) was determined as 22.9 µM.
Take `CNC(=O)c1ccc(-n2c(N[C@@H](c3ccc(OC)cc3)C(C)C)nc3c(c2=O)C[C@@H](C)N(C(=O)c2ccc(Cl)c(Cl)c2)C3)cc1` (single isomer, unassigned) [Compound C422a]: the EC50 in data set [1] (setting [4]) is 7.77 µM. In “in vitro” (setting [5]), this molecule yielded a CC50 at 3 days of 10.5 µM.
Turning to `COc1ccc(CNc2nc3c(c(=O)n2C2CCN(S(C)(=O)=O)CC2)CCN(C(=O)c2ccc(Cl)c(Cl)c2)C3)cc1` [Compound C66, 7-(3,4-dichlorobenzoyl)-3-[1-(methanesulfonyl)piperidin-4-yl]-2-{[(4-methoxyphenyl)methyl]amino}-5,6,7,8-tetrahydropyrido[3,4-d]pyrimidin-4(3H)-one], the half-maximal effective concentration (EC50) in data set [1] (setting [2]) is 0.77 µM. This molecule registered a CC50 at 3 days in the data set “in vitro” (setting [3]) of more than 50 µM.
Regarding `CNC(=O)c1ncc(-n2c(N[C@@H](C)c3ccc(OC(F)(F)F)cc3)nc3c(c2=O)C[C@@H](C)N(C(=O)c2ccc(Cl)c(Cl)c2)C3)n1C` [Compound C620], the EC50 in data set [1] (setting [4]) was 0.17 µM. For the same molecule, in the data set “in vitro” (setting [5]), the 50% cytotoxic concentration (CC50) at 3 days was more than 50 µM.
In the case of `CNC(=O)c1ccc(-n2c(NC(C)C)nc3c(c2=O)C[C@@H](C)N(C(=O)c2ccc(OC(F)F)c(Br)c2)C3)cc1` [Compound C571], the half-maximal effective concentration (EC50) in data set [1] (setting [4]) was determined as 0.09 µM. This molecule yielded a cytotoxic concentration (CC50) at 3 days in the data set “in vitro” (setting [5]) of more than 50 µM.
With `CNC(=O)c1ncc(-n2c(NC(C)C)nc3c(c2=O)C[C@@H](C)N(C(=O)c2ccc(Cl)c(Cl)c2)C3)cn1` [Compound C328, 5-[(6R)-7-(3,4-dichlorobenzoyl)-6-methyl-4-oxo-2-[(propan-2-yl)amino]-5,6,7,8-tetrahydropyrido[3,4-d]pyrimidin-3(4H)-yl]-N-methylpyrimidine-2-carboxamide], the EC50 in data set [1] (setting [2]) was 0.51 µM. In addition, the CC50 at 3 days in “in vitro” (setting [3]) is more than 50 µM.
For `COc1ccc(CNc2nc3c(c(=O)n2-c2ccccn2)CCN(C(=O)c2ccc(Cl)c(Cl)c2)C3)cc1` [Compound C78, 7-(3,4-dichlorobenzoyl)-2-{[(4-methoxyphenyl)methyl]amino}-3-(pyridin-2-yl)-5,6,7,8-tetrahydropyrido[3,4-d]pyrimidin-4(3H)-one], the half-maximal effective concentration (EC50) in data set [1] (setting [2]) is 2.11 µM. The same molecule yielded a CC50 at 3 days in the data set “in vitro” (setting [3]) of 41.8 µM.
Take `CNC(=O)c1ccc(-n2c(NC(C)C)nc3c(c2=O)C[C@@H](C)N(C(=O)c2ccc(F)c(C#N)c2)C3)cc1` [Compound C641]: the concentration for a half-maximal effect (EC50) in data set [1] (setting [4]) worked out at 1.99 µM. Moreover, in “in vitro” (setting [5]), the CC50 at 3 days was more than 50 µM.
`CNC(=O)c1ccc(-n2c(NCc3n[nH]c(=O)[nH]3)nc3c(c2=O)C[C@@H](C)N(C(=O)c2ccc(Cl)c(Cl)c2)C3)cc1` [Compound C600]: the half-maximal effective concentration (EC50) in data set [1] (setting [4]) was more than 25 µM. Moreover, in “in vitro” (setting [5]), the half-maximal cytotoxic concentration (CC50) at 3 days was more than 50 µM.
Regarding `CNC(=O)c1ccc(-n2c(N3CC4(CCC4)C3)nc3c(c2=O)C[C@@H](C)N(C(=O)c2ccc(Cl)c(Cl)c2)C3)cc1` [Compound C332, 4-[(6R)-2-(2-azaspiro[3.3]heptan-2-yl)-7-(3,4-dichlorobenzoyl)-6-methyl-4-oxo-5,6,7,8-tetrahydropyrido[3,4-d]pyrimidin-3(4H)-yl]-N-methylbenzamide], the EC50 in data set [1] (setting [2]) was found to be 1.46 µM. This molecule showed a half-maximal cytotoxic concentration (CC50) at 3 days in the data set “in vitro” (setting [3]) of 26 µM.
As to `CC(C)NC(=O)c1ccc(-n2c(NC(C)C)nc3c(c2=O)C[C@@H](C)N(C(=O)c2ccc(Cl)c(Cl)c2)C3)cn1` [Compound C227, 5-[(6R)-7-(3,4-dichlorobenzoyl)-6-methyl-4-oxo-2-[(propan-2-yl)amino]-5,6,7,8-tetrahydropyrido[3,4-d]pyrimidin-3(4H)-yl]-N-(propan-2-yl)pyridine-2-carboxamide], the 50% effective concentration (EC50) in data set [1] (setting [2]) came out at 0.18 µM. This molecule also registered a CC50 at 3 days in the data set “in vitro” (setting [3]) of more than 50 µM.
As for `CNC(=O)c1ccc(-n2c(N[C@@H](C)c3ccc(OC)c(OC)c3)nc3c(c2=O)C[C@@H](C)N(C(=O)c2ccc(Cl)c(Cl)c2)C3)cc1` (single isomer, unassigned) [Compound C415b], the EC50 in data set [1] (setting [4]) turned out to be 0.12 µM. In the data set “in vitro” (setting [5]), this molecule yielded a half-maximal cytotoxic concentration (CC50) at 3 days of 27.6 µM.
As to `CC(C)Nc1nc2c(c(=O)n1-c1ccc(Cl)nc1)C[C@@H](C)N(C(=O)c1ccc(Cl)c(Cl)c1)C2` [Compound C228, (6R)-3-(6-chloropyridin-3-yl)-7-(3,4-dichlorobenzoyl)-6-methyl-2-[(propan-2-yl)amino]-5,6,7,8-tetrahydropyrido[3,4-d]pyrimidin-4(3H)-one], in data set [1] (setting [2]), the EC50 came out at 0.27 µM. This molecule yielded a CC50 at 3 days in “in vitro” (setting [3]) of more than 50 µM.
For `CNC(=O)c1ccc(-n2c(NC(C)C)nc3c(c2=O)C[C@@H](C)N(C(=O)c2ccc(Br)c(OC(C)C)c2)C3)cc1` [Compound C575], the concentration for a half-maximal effect (EC50) in data set [1] (setting [4]) came to 0.55 µM. In “in vitro” (setting [5]), the half-maximal cytotoxic concentration (CC50) at 3 days was more than 50 µM.
On to `COc1ccc(CNc2nc3c(c(=O)[nH]2)C[C@H](C)N(C(=O)c2ccc(Cl)c(Cl)c2)C3)cc1` [Compound C63B, (6S)-7-(3,4-dichlorobenzoyl)-2-{[(4-methoxyphenyl)methyl]amino}-6-methyl-5,6,7,8-tetrahydropyrido[3,4-d]pyrimidin-4(3H)-one], for which the EC50 in data set [1] (setting [2]) was 1.63 µM. For the same molecule, in the data set “in vitro” (setting [3]), half-maximal cytotoxicity (CC50 at 3 days) was put at 35.3 µM.
`CC(C)NC(=O)c1ccc(-n2c(NC(C)C)nc3c(c2=O)C[C@@H](C)N(C(=O)c2ccc(Cl)c(Cl)c2)C3)cc1` [Compound C178, 4-[(6R)-7-(3,4-dichlorobenzoyl)-6-methyl-4-oxo-2-[(propan-2-yl)amino]-5,6,7,8-tetrahydropyrido[3,4-d]pyrimidin-3(4H)-yl]-N-(propan-2-yl)benzamide]: the EC50 in data set [1] (setting [2]) is 0.04 µM. In addition, in the data set “in vitro” (setting [3]), the CC50 at 3 days was more than 50 µM.
On to `CNC(=O)c1ccc(-n2c(NC(C)C)nc3c(c2=O)C[C@@H](C)N(C(=O)c2ccc4c(c2)C=CS4(=O)=O)C3)cc1` [Compound C604], for which, in data set [1] (setting [4]), the EC50 was more than 25 µM. In “in vitro” (setting [5]), this molecule yielded a CC50 at 3 days of more than 50 µM.
